Experimental findings from the supplement of paper PMC3974653 are described below.

The test system of this assay is MTT (mouse pheochromocytoma). Briefly: IC50 of cell viability (ATP content). As to conditions: (24 or 48 h). The gist of the method: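 MTT mouse pheochromocytoma cells were seeded into white 1536-well plates at 5 µl per well from a 200,000 cells/ml suspension in DMEM with 5% FBS and 1% horse serum, then cultured overnight at 37°C, 5% CO2. A pintool added 23 nl of library compound in DMSO at 8 concentrations (final 0.5 nM to 46 µM) for 24 or 48 hrs, and CellTiter-Glo ATP luminescence was read after 15 minutes. Signals were scaled so that positive-control wells equalled 100% and DMSO wells 0%. IC50 values were derived by fitting a four-parameter logistic curve.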

Where a name gives a salt, the structure may show the parent alone.

For the molecule `COc1nc(N)nc2c1ncn2C1OC(CO)C(O)C1O` (stereo not given) [NELARABINE], the “IC50 of cell viability” value is more than 46 µM.
The value for `CN(C)C(=O)Oc1cccc([N+](C)(C)C)c1` [NEOSTIGMINE] was more than 46 µM.
Regarding `CCCCc1cc2c(=O)c(C(=O)OC)c[nH]c2cc1OCc1ccccc1` [NEQUINATE], the “IC50 of cell viability” value was more than 46 µM.
The result for `C=CC(C)(O)CC/C=C(\C)CCC=C(C)C` (stereo not given) [NEROLIDOL] reads more than 46 µM; that for `CNC(=N)NCCC[C@H](N)C(=O)O` [NG-Monomethyl-L-arginine acetate], more than 46 µM; that for `CC(=O)O.CNC(=N)NCCC[C@H](N)C(=O)O` [NG-Monomethyl-L-arginine acetate], more than 46 µM.
The result for `O=C(O)c1cccnc1` [NIACIN] reads more than 46 µM; that for `CCN(CC)CCOC(=O)c1cccnc1.O.O=C(O)CC(O)(CC(=O)O)C(=O)O` [NICAMETATE CITRATE], more than 46 µM; that for `COC(=O)\C1=C(/C)N\C(=C(/C1C2=CC=CC(=C2)[N+]([O-])=O)C(=O)OCCN(C)CC3=CC=CC=C3)C` (stereo not given) [NICARDIPINE], more than 46 µM.
The result for `CO[C@]12C[C@@H](COC(=O)c3cncc(Br)c3)CN(C)[C@@H]1Cc1cn(C)c3cccc2c13` [NICERGOLINE] reads more than 46 µM.
For `O=C(OC[C@@H]1O[C@@](O)(COC(=O)c2cccnc2)[C@H](OC(=O)c2cccnc2)[C@H]1OC(=O)c1cccnc1)c1cccnc1` [NICOFURANOSUM], the “IC50 of cell viability” value was more than 46 µM.
The value for `O=C(NCCc1c[nH]c2ccccc12)c1cccnc1` [NICOTREDOLUM] was more than 46 µM; that for `COC(=O)\C1=C(/C)N\C(=C(/C1C2=C(C=CC=C2)[N+]([O-])=O)C(=O)OC)C` [NIFEDIPINE] was more than 46 µM.
The value for `O=C(O)c1cccnc1Nc1cccc(C(F)(F)F)c1` [NIFLUMIC ACID] was more than 46 µM; that for `O=NCc1ccc([N+](=O)[O-])o1` [NIFUROXIME] was more than 46 µM.
The result for `COC(=O)C1=C(C#N)NC(C)=C(C(=O)OC(C)C)C1c1cccc([N+](=O)[O-])c1` (stereo not given) [NILVADIPINE] reads more than 46 µM; that for `COCCOC(=O)\C1=C(/C)N\C(=C(/C1C2=CC=CC(=C2)[N+]([O-])=O)C(=O)OC(C)C)C` (stereo not given) [NIMODIPINE], more than 46 µM; that for `Cc1ncc(CNC(=O)N(CCCl)N=O)c(N)n1` [NIMUSTINE], more than 46 µM.
Consider `CNCCC(Oc1ccccc1OC)c1ccccc1` (stereo not given) [NISOXETINE], for which the “IC50 of cell viability” value was more than 46 µM.
The value for `O=[N+]([O-])c1ccc([As](=O)(O)O)cc1` [NITARSONE] was more than 46 µM.
Regarding `CCN(Cc1ccc(Cl)nc1)/C(=C/[N+](=O)[O-])NC` [NITENPYRAM], the “IC50 of cell viability” value is more than 46 µM.
On to `CCOC(=O)\C1=C(/C)N\C(=C(/C1C2=CC=CC(=C2)[N+]([O-])=O)C(=O)OC)C` (stereo not given) [NITRENDIPINE], for which the “IC50 of cell viability” value is more than 46 µM.
The value for `NC(=O)c1cc([N+](=O)[O-])cc([N+](=O)[O-])c1` [NITROMIDE] was more than 46 µM; that for `Cc1ccc2nc(N)nc(O)c2c1Sc1ccncc1` [NOLATREXED] was more than 46 µM; that for `CN1Cc2c(N)cccc2C(c2ccccc2)C1.O=C(O)/C=C\C(=O)O` (stereo not given) [NOMIFENSINE MALEATE] was more than 46 µM.
The result for `C#C[C@]1(O)CC[C@H]2[C@@H]3CCC4=C/C(=N\O)CC[C@H]4[C@@H]3CC[C@]21CC` [NORELGESTROMIN] reads more than 46 µM; that for `C[C@]12CCC3C(CCC/4=C/C(=O)CCC34)C1CC[C@@]2(O)C#C` (stereo not given in full) [NORETHINDRONE], more than 46 µM; that for `CC(=O)O[C@@]1(CC[C@H]2[C@@H]3CCC/4=C/C(=O)CC[C@@H]4[C@H]3CC[C@]12C)C#C` [NORETHISTERONE ACETATE], more than 46 µM.
The result for `O=C1NC(=O)C2C3C=CC(C3)C12` (stereo not given) [NOREXIMIDUM] reads more than 46 µM; that for `NCC(O)c1cccc(O)c1` (stereo not given) [NORFENEFRINE HYDROCHLORIDE], more than 46 µM.
On to `C#C[C@]1(OC(C)=O)CC[C@H]2[C@@H]3CCC4=C/C(=N/O)CC[C@@H]4[C@H]3CC[C@@]21CC` [NORGESTIMATE], for which the “IC50 of cell viability” value is more than 46 µM.
Take `O=C1N=C2SCCN2C(=O)C1Cc1ccc(Cl)cc1` (stereo not given) [NUCLOMEDONUM]: the “IC50 of cell viability” value was more than 46 µM.
The result for `CC(CCc1ccccc1)NC(C)C(O)c1ccc(O)cc1` (stereo not given) [NYLIDRIN] reads more than 46 µM.
The value for `CC(=O)NC(CCC(N)=O)C(=O)O` [Na-Acetyl-L-glutamine] was more than 46 µM; that for `COc1ccc2cc(CCC(C)=O)ccc2c1` [Nabumetone] was more than 46 µM.
The result for `NC(=O)c1ccc[n+]([C@@H]2O[C@@H](CO[P@@](=O)([O-])O[P@@](=O)(O)OC[C@@H]3O[C@@H](n4cnc5c(N)ncnc54)[C@@H](O)[C@H]3O)[C@H](O)[C@@H]2O)c1` [Nadide] reads more than 46 µM.
`CC1CCc2c(N3CCC(O)CC3)c(F)cc3c(=O)c(C(=O)O)cn1c23` (stereo not given) [Nadifloxacin]: the “IC50 of cell viability” value is more than 46 µM.
The result for `CC(C)(C)NC[C@H](O)COc1cccc2c1C[C@@H](O)[C@H](O)C2` [Nadolol] reads more than 46 µM; that for `O.[Na+].CCOC1=CC=C2C=CC=CC2=C1C(=O)N[C@H]3[C@@H]4SC(C)(C)[C@@H]([N@@]4C3=O)C([O-])=O` [Nafcillin sodium salt monohydrate], more than 46 µM.
Turning to `CC(C)(Oc1ccc(C2CCCc3ccccc32)cc1)C(=O)O` (stereo not given) [Nafenopin], the “IC50 of cell viability” value was more than 46 µM.
The value for `CCN(CC)CCOC(=O)[C@@H](Cc1cccc2ccccc12)C[C@H]1CCCO1` [Nafronyl oxalate] was more than 46 µM; that for `CN(C/C=C\c1ccccc1)Cc1cccc2ccccc12` [Naftifine hydrochloride] was more than 46 µM.
The value for `CCN1\C=C(\C(O)=O)C(=O)C2=CC=C(C)N=C12` [Nalidixic acid] was more than 46 µM; that for `CCCCCCCCCC(=O)O[C@H]1CC[C@H]2[C@@H]3CCC4=CC(=O)CC[C@@H]4[C@H]3CC[C@]12C` [Nandrolone decanoate] was more than 46 µM.
The result for `c1ccc2ccccc2c1` [Naphthalene] reads more than 46 µM.
For `CN[S+](=O)([O-])CCc1ccc2[nH]cc(C3CCN(C)CC3)c2c1` [Naratriptan Hydrochloride], the “IC50 of cell viability” value was more than 46 µM.
The result for `C[C@@H]1O[C@@H](O[C@@H]2\C=C/C=C\C=C/C=C\C[C@H](C)OC(=O)/C=C\[C@H]3O[C@@H]3C[C@H](O)C[C@]3(O)C[C@@H](O)[C@@H](C(=O)O)[C@H](C2)O3)[C@H](O)[C@H](N)[C@@H]1O` [Natamycin] reads more than 46 µM; that for `CCCc1c2oc(C(=O)O)cc(=O)c2cc2c(=O)cc(C(=O)O)n(CC)c12` [Nedocromil], more than 46 µM.
The result for `CCC/1=N/N(CCCN2CCN(CC2)C3=CC(=CC=C3)Cl)C(=O)N1CCOC4=CC=CC=C4` [Nefazodone hydrochloride] reads more than 46 µM; that for `C/C=C1/NN(CCCN2CCN(c3cccc(Cl)c3)CC2)C(=O)N1CCOc1ccccc1` [Nefazodone hydrochloride], more than 46 µM; that for `Cc1cccc(C)c1NC(=O)CN1CCCC1=O` [Nefiracetam], more than 46 µM.
The result for `CN1CCO[C@H](c2ccccc2)c2ccccc2C1` [Nefopam hydrochloride] reads more than 46 µM; that for `Cc1c(O)cccc1C(=O)N[C@@H](CSc1ccccc1)[C@H](O)CN1C[C@H]2CCCC[C@H]2C[C@H]1C(=O)NC(C)(C)C` [Nelfinavir Mesylate], more than 46 µM; that for `CNc1cc(OC)c(C(=O)NC2CCN(Cc3ccccc3)C2C)cc1Cl` (stereo not given) [Nemonapride], more than 46 µM.
Turning to `CCOC(=O)c1cc(-c2ccccc2)nc2ccc(C)cc12` [Neocinchophen], the “IC50 of cell viability” value is more than 46 µM.
The value for `NC[C@@H]1O[C@@H](O[C@H]2[C@@H](O)[C@H](O[C@@H]3[C@@H](O)[C@H](N)C[C@H](N)[C@H]3O[C@H]3O[C@H](CN)[C@@H](O)[C@H](O)[C@H]3N)O[C@@H]2CO)[C@H](N)[C@@H](O)[C@@H]1O` [Neomycin Trisulfate Hydrate] was more than 46 µM; that for `NC(=O)Cc1cccc(C(=O)c2ccccc2)c1N` [Nepafenac] was more than 46 µM; that for `C1CN\C(N1)=C/C2=CC=CC3=C2C=CC=C3` [Nephazoline] was more than 46 µM.
The value for `CCN[C@@H]1C[C@H](N)[C@H](O[C@@H]2O\C(=C/C[C@H]2N)CN)[C@@H](O)[C@@H]1O[C@@H]3OC[C@@](C)(O)[C@@H](NC)[C@H]3O` [Netilmicin sulfate] was more than 46 µM.
The result for `Cc1ccnc2c1NC(=O)c1cccnc1N2C1CC1` [Nevirapine] reads more than 46 µM; that for `NC(=O)c1cccnc1` [Niacinamide], more than 46 µM; that for `O=C(CCNNC(=O)c1ccncc1)NCc1ccccc1` [Nialamide], more than 46 µM.
As to `CCCCC(CC)CCC(CC(C)C)OS(=O)(=O)[O-]` (stereo not given) [NiaproofÆ 4], the “IC50 of cell viability” value was more than 46 µM.
The value for `CC(CNC(=O)c1cccnc1)NC(=O)c1cccnc1` (stereo not given) [Nicaraven] was more than 46 µM; that for `O=C(OCC(COC(=O)c1cccnc1)(COC(=O)c1cccnc1)COC(=O)c1cccnc1)c1cccnc1` [Niceritrol] was more than 46 µM.
